According to patent US20100081200A1, “FORMULATIONS AND METHODS FOR CULTURING STEM CELLS” (priority 2007, published 2010):

Assays:
[1] = system: embryonic stem cells; assay: Effect of lithium chloride on embryonic stem cells; type: cell-based
Description: Thus, in some specific embodiments, the serum replacement is devoid lithium chloride.

[2] = system: embryonic stem cell colonies; assay: Effect of fetuin and α-fetoprotein on growth rate and size of embryonic stem cell colonies; type: cell-based; conditions: human serum albumin 10 mg/ml
Protocol: All formulations shown contained human serum albumin at a concentration of 10 mg/ml.
The composition of the formulation according to this embodiment of the present invention was further optimized as described above in Table 2.

Molecule	effect on embryonic stem cells [1]	concentration that increased colony size and growth rate the most [2] [mg/mL]
[Cl-].[Li+] [lithium chloride]	may be harmful for embryonic stem cells resulting in differentiation	–
A: α-fetoprotein, commercially available fetal carrier protein (protein, UniProt P02771 19-609, looked up) Alpha-fetoprotein: RTLHRNEYGIASILDSYQCTAEISLADLATIFFAQFVQEATYKEVSKMVKDALTAIEKPTGDEQSSGCLENQLPAFLEELCHEKEILEKYGHSDCCSQSEEGRHNCFLAHKKPTPASIPLFQVPEPVTSCEAYEEDRETFMNKFIYEIARRHPFLYAPTILLWAARYDKIIPSCCKAENAVECFQTKAATVTKELRESSLLNQHACAVMKNFGTRTFQAITVTKLSQKFTKVNFTEIQKLVLDVAHVHEHCCRGDVLDCLQDGEKIMSYICSQQDTLSNKITECCKLTTLERGQCIIHAENDEKPEGLSPNLNRFLGDRDFNQFSSGEKNIFLASFVHEYSRRHPQLAVSVILRVAKGYQELLEKCFQTENPLECQDKGEEELQKYIQESQALAKRSCGLFQKLGEYYLQNAFLVAYTKKAPQLTSSELMAITRKMAATAATCCQLSEDKLLACGEGAADIIIGHLCIRHEMTPVNPGVGQCCTSSYANRRPCFSSLVVDETYVPPAFSDDKFIFHKDLCQAQGVALQTMKQEFLINLVKQKPQITEEQLEAVIADFSGLLEKCCQGQEQEVCFAEEGQKLISKTRAALGV	–	0.05
